pIC50: −log10 of the molar value. The source made the active and inactive calls.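 Rule for the calls: active = lipid-stain IC50 at or below a set limit, with nuclear-stain toxicity IC50 at least five times higher; inactive = the rest.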
How the values were obtained:
[1] = system: TAG; test: triacylglycerol accumulation inhibitor potency, dose response, cell-based, panel, Nile Red and DAPI fluorescence, H9c2 (AID 651630); conditions: H9c2 cells, Nile Red TAG fluorescence, oleic acid;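 note: cells exposed to compound overnight before fixation and staining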
[2] = system: DAPI; test: as above; conditions: H9c2 cells, DAPI nuclear fluorescence (cytotoxicity counter-readout), oleic acid

| SMILES | pIC50 ([1]; run 1) | pIC50 ([1]; run 2) | pIC50 ([1]; mean of runs) | IC50 ([1]; mean of runs) | IC50 cytotoxicity (DAPI nuclear signal decrease) ([2]; mean of runs) | IC50 cytotoxicity (DAPI nuclear signal decrease) ([2]; run 1) | IC50 cytotoxicity (DAPI nuclear signal decrease) ([2]; run 2) |
| --- | --- | --- | --- | --- | --- | --- | --- |
| CCC(C)(C)NC(=O)C(c1ccc(C)cc1)N(Cc1ccco1)C(=O)CCC(=O)Nc1nccs1 (stereo not given) | 5.32 | 5.05 | 5.17 | – | > 25 µM (inactive) | > 25 µM | > 25 µM |
| CCOc1ccccc1NC(=O)CCC(=O)Nc1ccccc1OCC | < 4.60 | < 4.60 | – | > 25 µM (inactive) | > 25 µM (inactive) | > 25 µM | > 25 µM |
| CC1(C(=O)NCc2ccco2)Cc2c(-c3cccc(C(F)(F)F)c3)ccnc2O1 (stereo not given) | < 4.60 | < 4.60 | – | > 25 µM (inactive) | > 25 µM (inactive) | > 25 µM | > 25 µM |
| COc1cc(NC(=O)c2cc3cccc(OC)c3o2)cc(C(=O)Nc2cccc(C(F)(F)F)c2)c1 | 5.03 | 4.83 | 4.92 | – | > 25 µM (inactive) | > 25 µM | > 25 µM |
| O=C(CSc1nc(Nc2ccccc2)nc(N2CCOCC2)n1)N1CCCC1 | 4.93 | 4.90 | 4.91 | – | – | 22.1 µM | > 25 µM |
| CCC(C)(C)NC(=O)C(c1cccn1C)N(Cc1ccc(OC)cc1)C(=O)Cn1nnc2ccccc21 (stereo not given) | < 4.60 | < 4.60 | – | > 25 µM (inactive) | > 25 µM (inactive) | > 25 µM | > 25 µM |
| CC(C)C[C@@H](CNC(=O)OC(C)(C)C)NC(=O)c1nc[nH]c1C(=O)N[C@@H](CC(C)C)C(=O)CNC[C@H](CC(C)C)NC(=O)c1nc[nH]c1C(=O)N[C@@H](Cc1c[nH]c2ccccc12)C(=O)OC(C)(C)C | 5.35 | 5.19 | 5.26 | – | > 25 µM (inactive) | > 25 µM | > 25 µM |
| Cc1ccc(-c2nc(NC(=O)c3cc(C(C)(C)C)nn3C)sc2C)cc1Cl | 5.20 | 5.32 | 5.25 | – | 21.1 µM (inactive) | 20.2 µM | 22 µM |
| COc1cc(C)c2sc3ccccc3c(=O)c2c1NCCN(C)C | 5.13 | 4.96 | 5.04 | – | > 25 µM (inactive) | > 25 µM | > 25 µM |
| COc1cc(NC(=O)Nc2nc(C(N)CCc3ccccc3)cs2)cc(OC)c1OC (stereo not given) | 5.29 | 5.10 | 5.18 | – | > 25 µM (inactive) | > 25 µM | > 25 µM |
| CCC(C)Nc1nc(-c2cccc(OC)c2O)nc2ccccc12 (stereo not given) | < 4.60 | < 4.60 | – | > 25 µM (inactive) | > 25 µM (inactive) | > 25 µM | > 25 µM |
| COc1ccc(C#Cc2ccc3c(c2)O[C@@H](CN(C)C(=O)Nc2cccc(OC)c2)[C@H](C)CN([C@@H](C)CO)S3(=O)=O)cc1 | 5.13 | 5.02 | 5.07 | – | > 25 µM (inactive) | > 25 µM | > 25 µM |
| COc1ccc(CC(N)c2csc(NC(=O)NCc3ccccc3)n2)cc1 (stereo not given) | 4.69 | 4.81 | – | 17.9 µM (inactive) | > 25 µM (inactive) | > 25 µM | > 25 µM |
| CN1N=C(N)c2cn(C3OC(COP(=O)(O)O)C(O)C3O)c3ncnc1c23 (stereo not given) | 4.96 | 4.87 | 4.91 | – | 7.78 µM (inactive) | 6.76 µM | 8.79 µM |
| Cc1cc(N2CCN(Cc3cn(C)nc3-c3cccc(Cl)c3)CC2)cc(C)n1 | < 4.60 | 4.65 | – | – | > 25 µM (inactive) | > 25 µM | > 25 µM |
| CCc1nc(C)c(C(=O)N2CCCC(C(=O)Nc3cccc(-c4cccc(C)c4)c3)C2)o1 (stereo not given) | < 4.60 | < 4.60 | – | > 25 µM (inactive) | > 25 µM (inactive) | > 25 µM | > 25 µM |
| COc1ccc(NC(=O)C2(C)Cc3c(-c4cccc(NC(C)=O)c4)ccnc3O2)cn1 (stereo not given) | < 4.60 | < 4.60 | – | > 25 µM (inactive) | > 25 µM (inactive) | > 25 µM | > 25 µM |
| C[C@H](CO)N1C[C@H](C)[C@H](CN(C)S(=O)(=O)c2ccc(Cl)cc2)OCc2ccccc2-c2c(n(C)c3ccccc23)C1=O | < 4.60 | < 4.60 | – | > 25 µM (inactive) | – | 13 µM | > 25 µM |
| Cc1cc(C)cc(-n2c3ccc(NC(=O)Cc4cccc5ccccc45)cc3c(=O)n2C)c1 | 4.66 | < 4.60 | – | – | > 25 µM (inactive) | > 25 µM | > 25 µM |
| CCN(CC)CCNc1ncnc2c1sc1nc(N3CCCC3)c3c(c12)CC(C)(C)OC3 | 4.77 | 4.72 | – | 18 µM (inactive) | > 25 µM (inactive) | > 25 µM | > 25 µM |
| O=C(N/N=C/c1ccc2c(c1)OCO2)c1cc(-c2ccncc2)nc2ccccc12 | 4.77 | 4.90 | 4.83 | – | > 25 µM (inactive) | > 25 µM | > 25 µM |
| COc1cc(-c2cc(NC=O)c3ncc(-c4cccc(C(=O)N(C)C)c4)n3c2)cc(OC)c1OC | 5.30 | 4.90 | 5.05 | – | > 25 µM (inactive) | > 25 µM | > 25 µM |
| CCCCCCN(C(=O)CCCCCN1C(=O)NC(c2ccc([N+](=O)[O-])cc2)C(C(=O)OCc2ccccc2)=C1C)C(C(=O)NCCCC)C1CCCCC1 (stereo not given) | 5.43 | 5.12 | 5.25 | – | > 25 µM (inactive) | > 25 µM | > 25 µM |

Second part, led by results:

| pIC50 ([1]; run 1) | pIC50 ([1]; run 2) | pIC50 ([1]; mean of runs) | IC50 ([1]; mean of runs) | SMILES | IC50 cytotoxicity (DAPI nuclear signal decrease) ([2]; mean of runs) | IC50 cytotoxicity (DAPI nuclear signal decrease) ([2]; run 1) | IC50 cytotoxicity (DAPI nuclear signal decrease) ([2]; run 2) |
| --- | --- | --- | --- | --- | --- | --- | --- |
| < 4.60 | 4.63 | – | – | O=C(c1ccoc1)N1CCN(c2cc(-c3ccncc3)nc3cc(-c4cccc(Cl)c4)nn23)CC1 | > 25 µM (inactive) | > 25 µM | > 25 µM |
| < 4.60 | < 4.60 | – | > 25 µM (inactive) | COc1cccc(/C=N/NC(=O)CSc2cccc3cccnc23)c1 | > 25 µM (inactive) | > 25 µM | > 25 µM |
| 4.70 | < 4.60 | – | – | Cc1ccc(/C=N/NC(=O)Cc2c[nH]c3ccccc23)c(C)c1 | > 25 µM (inactive) | > 25 µM | > 25 µM |
| < 4.60 | < 4.60 | – | > 25 µM (inactive) | COC(=O)[C@@]1(Cc2ccc(OC)cc2)[C@@H]2C(=CC(=O)[C@H]2CC(=O)C(=O)N2CCCC2)CN1C(=O)c1ccccc1 | – | 21 µM | > 25 µM |
| < 4.60 | < 4.60 | – | > 25 µM (inactive) | CCOc1ccc(CCNC(=O)CCc2nc(-c3ccc(C)cc3)no2)cc1OCC | > 25 µM (inactive) | > 25 µM | > 25 µM |
| < 4.60 | < 4.60 | – | > 25 µM (inactive) | N=c1n(CCO)c2ccccc2n1CCOc1ccc(Cl)cc1Cl | 22.3 µM (inactive) | 21.4 µM | 23.1 µM |
| 4.82 | 4.66 | – | 18.5 µM (inactive) | CC(=O)O[C@H]1C[C@@]2(C)[C@@H](C[C@@H](O)[C@H]3[C@@]4(C)CC[C@@H](O)[C@@H](C)[C@@H]4CC[C@@]32C)/C1=C(\CCC=C(C)C)C(=O)O | > 25 µM (inactive) | > 25 µM | > 25 µM |
| < 4.60 | < 4.60 | – | > 25 µM (inactive) | Cc1cc(Nc2ccc(C)c(Cl)c2)nc(N2CCOCC2)n1 | > 25 µM (inactive) | > 25 µM | > 25 µM |
| < 4.60 | < 4.60 | – | > 25 µM (inactive) | CCCC[C@H](CN[C@@H](CNC)[C@H](C)CC)NCCC12CCC(CC1)C2 | – | 17.8 µM | > 25 µM |
| < 4.60 | < 4.60 | – | > 25 µM (inactive) | CCOC(=O)CSc1cccc2cccnc12 | > 25 µM (inactive) | > 25 µM | > 25 µM |
